Results taken from patent publication US20090047235A1, “Paratransgenesis to Control Termites or Other Social Insects” (priority 2007, published 2009).

Legend:
[1] = system: termite protozoa (Pseudotrichonympha grassii Koidzumi, Holomastigotoides hartmanni Koidzumi, Spirotrichonympha leidyi Koidzumi); assay: In vitro lytic peptide test on anaerobic cultures of termite hindgut protozoa; format: cell-based; settings: 50 μM peptide, after 5-10 minutes
From the text: (§1) Three protozoal species (Pseudotrichonympha grassii Koidzumi, Holomastigotoides hartmanni Koidzumi, and Spirotrichonympha leidyi Koidzumi) from the termite hindgut were maintained for 24 hrs in vitro, a sufficient time to allow testing of lytic peptides. The protozoa were removed from the termite hindgut in an anaerobic glove-box, and placed in sterile, sparged (Hydrogen 2.5%, Carbon dioxide 5% and Nitrogen 92.5%) Trager U (pH 7.0) saline solution. Positive controls for testing lytic peptides were established and validated with these cultures. The efficacy of the lytic peptides was then routinely tested prior to experiments to confirm both aerobic activity (using the “standard” T. pyriformis) and anaerobic activity (using cultures of the termite protozoa). One hundred percent mortality was observed after 5-10 minutes when any of these protozoa were treated with any one of three lytic peptides (hecate, melittin, or cecropin) at a 50 μM concentration, confirming the toxicity of the lytic peptides towards termite protozoa in an anaerobic environment that mimicked termite hindgut conditions.
(§2) The efficacy of each lytic peptide solution was confirmed using T. pyriformis and termite protozoa cultures in vitro before each microinjection test. A 5 ml overnight culture of T. pyriformis was washed three times in sterile 10 mM Tris-HCl (pH 7.4), and suspended in 1 ml 10 mM Tris-HCl (pH 7.4). Subsequently, 100 μl aliquots were placed in a Sigmacote™-treated, 96-well microplate. The lytic peptides were dissolved in 10 mM Tris-HCl. A range of concentrations (25-500 μM) of lytic peptide was added to each of several wells, and the remaining wells were treated with 10 mM Tris-HCl (pH 7.4) as control. After confirming aerobic activity of the lytic peptide concentrations against T. pyriformis, lytic peptide efficacy was then tested against anaerobic cultures of termite protozoa. Sparged lytic peptide was added anaerobically to the sparged cultures of termite protozoa, and mortality was observed.

Tetrahymena pyriformis = assay: In vitro lytic peptide test on aerobic Tetrahymena pyriformis cultures; format: cell-based; settings: 50 μM peptide, after 5-10 minutes
Procedure: The initial positive control for testing the efficacy of lytic peptide solutions was the aerobic, laboratory standard protozoan Tetrahymena pyriformis, cultures of which were purchased from Carolina Biological (#13-1182A) and maintained in proteose peptone media. Before each experiment, lytic peptide activity was tested using T. pyriformis.
as §1
as §2, with “After confirming aerobic activity of the lytic peptide concentrations against T. pyriformis, lytic peptide efficacy was then tested against anaerobic cultures of termite protozoa. Sparged lytic peptide was added anaerobically to the sparged cultures of termite protozoa, and mortality was observed.” left out

[2] = system: protozoa in the hindgut of termite workers; assay: In vivo microinjection of lytic peptides into the termite hindgut; settings: for relative effectiveness against protozoa in vivo among peptides tested: hindgut microinjection, 50 μM; for time to defaunation of injected termite workers: ~0.5 μl of 50 μM lytic peptide injected into hindgut
From the text: A termite microinjection protocol was used to confirm directly the effect of lytic peptide in the hindgut. We first optimized the protocol by finding preferred conditions for each of the following: the time to immobilize a termite by cooling on ice; suitable methods for anchoring the termite in place for microinjection; and the maximum volume that could consistently be injected into the hindgut without causing direct trauma. Microinjection directly to the termite hindgut avoided the possibility of peptide degradation by non-specific protease activity in the foregut or midgut.
Termite workers were immobilized by chilling on ice for 1.5 min, and were then mechanically aspirated, head-first, into a modified pipette tip that had been trimmed to expose the terminus of the termite. This “termite holder” was attached to a micromanipulator, and the insect was advanced to insert a Sigmacote™-treated, fine glass needle into the anus of the termite. Lytic peptide or control solution was injected under the control of a high-speed, electronic foot pedal with pulse length control, to ensure that a constant volume was reproducibly injected into each insect. Approximately 0.5 μl of 10 mM Tris-HCl (pH 7.4) (control) or 0.5 μl of 50 μM lytic peptide dissolved in 10 mM Tris-HCl (pH 7.4) was injected into the hindgut of each termite. A second control group of non-injected termite workers was also included. The termites were housed in 3 cm Petri dishes, in which damp filter paper was provided. At 24, 48, and 72 hrs guts from randomly selected termites from each treatment were extirpated, and observations were made of the presence and motility of protozoa.

[3] = system: termite workers (gut protozoa); assay: Termite feeding experiments with yeast expressing lytic peptide; format: in vivo; settings: summary statement
Procedure: Lytic peptide-expressing and control Kluyveromyces lactis strains were used in termite feeding experiments. Aliquots of 2 ml YPGal in Sigmacote™-treated 15 ml Falcon tubes were inoculated with yeast, which were then grown for 3 days, with shaking at 225 rpm at 30° C. The strains grown were K. lactis engineered with the expression vector (control), K. lactis expressing the control protein MBP, and K. lactis expressing a lytic peptide gene (either hecate or hecate-GFP fusion). The cultures were washed three times with sterile, deionized water, and re-suspended in 500 μl sterile 10 mM galactose. Galactose was used because the coding sequences were under the control of the LAC4 promoter, a strong promoter whose activity is induced by galactose. Secretion of active lytic peptide by the transformed K. lactis into the growth media was verified using in vitro cultures of the protozoa T. pyriformis.
Termites were collected in New Orleans, La., and were maintained on damp cardboard in plastic buckets at room temperature. Only termites that had been held in the laboratory less than 4 weeks were used in the feeding experiments. […]
Termite mortality was recorded every three days. The number of viable termites was also recorded, as cannibalism in laboratory colonies has sometimes been observed. […]

[4] = system: termite symbiotic protozoa; settings: preliminary data, poster 2002; cited from earlier work
[5] = system: termite workers (gut protozoa); assay: Defaunation of termites by feeding Metronidazole-treated filter paper; format: in vivo; settings: for time to death of defaunated termites: Metronidazole feeding
Procedure: Using an aspirator, six groups of 100 termite workers each were collected and placed in Petri dishes containing damp filter paper. In addition, 10 soldiers were added to each group to enhance the overall survivorship rate. […] The remaining three groups of termites were transferred to Petri dishes containing paper that had been dampened with autoclaved tap water. All six replicates were transferred to an incubator and mortality was recorded every 24 hours. […] Once defaunation had been confirmed, all six groups were thereafter provided only with filter paper dampened with sterile tap water. Mortality was recorded each day. Statistically significant differences in mortality between treatment groups and control groups were established using 95% confidence intervals.

| Compound | mortality of termite protozoa [1] | mortality of T. pyriformis (Tetrahymena pyriformis) | relative effectiveness against protozoa in vivo among peptides tested [2] | time to defaunation of injected termite workers [2] [h] | effect on protozoa in the termite gut [3] | time to death of the insect without protozoa [3] | killing of termite symbiotic protozoa in vitro [4] | mortality of defaunated termites versus controls ([5]; 95% confidence intervals did not overlap) | time to death of defaunated termites [5] | time to death of defaunated termites ([5]; listed as metronidazole) | time to defaunation of termite workers ([5]; filter paper treated with 400 μL Metronidazole (2 g/L)) [days] |
| --- | --- | --- | --- | --- | --- | --- | --- | --- | --- | --- | --- |
| cecropin | One hundred | One hundred | – | – | – | – | – | – | – | – | – |
| CC[C@H](C)[C@H](NC(=O)CN)C(=O)NCC(=O)N[C@@H](C)C(=O)N[C@H](C(=O)N[C@@H](CC(C)C)C(=O)N[C@@H](CCCCN)C(=O)N[C@H](C(=O)N[C@@H](CC(C)C)C(=O)N[C@H](C(=O)N[C@H](C(=O)NCC(=O)N[C@@H](CC(C)C)C(=O)N1CCC[C@H]1C(=O)N[C@@H](C)C(=O)N[C@@H](CC(C)C)C(=O)N[C@H](C(=O)N[C@@H](CO)C(=O)N[C@@H](Cc1c[nH]c2ccccc12)C(=O)N[C@H](C(=O)N[C@@H](CCCCN)C(=O)N[C@@H](CCCNC(=N)N)C(=O)N[C@@H](CCCCN)C(=O)N[C@@H](CCCNC(=N)N)C(=O)N[C@@H](CCC(N)=O)C(=O)N[C@@H](CCC(N)=O)C(N)=O)[C@@H](C)CC)[C@@H](C)CC)[C@@H](C)O)[C@@H](C)O)C(C)C)C(C)C [melittin] | One hundred | One hundred | more effective against protozoa in vivo | 72 | – | – | – | – | – | – | – |
| falalkalkk alkklkkalk kal (FALALKALKKALKKLKKALKKA; This is the designed peptide known as hecate.) | One hundred | One hundred | more effective against protozoa in vivo | 72 | kill all (or at least most) species of protozoa in the termite gut | about six | would kill termite symbiotic protozoa | – | – | – | – |
| Cc1ncc([N+](=O)[O-])n1CCO [Metronidazole] | – | – | – | – | – | – | – | significantly higher mortality | six | six and about six | ≤ 7 |
